Assay results published in patent publication US11382877B2, “Formulation of (E)-2,4,6-trimethoxystyryl-3-[(carboxymethyl)amino]-4-methoxybenzylsulphone with enhanced stability and bioavailability” (ONCONOVA THERAPEUTICS, INC., priority 2017, dated 2022).
Structures can show the parent of a compound that is named as a salt.

Assays:
[1] = administered orally; cited from earlier work
[2] = system: immature bone marrow cells (blasts); assay: Intravenous infusion trials in MDS patients; assay type: in vivo
Protocol: According to one embodiment, Rigosertib was given as an intravenous infusion to MDS patients. In one trial, patients received 800 mg Rigosertib for two to five days every other week. According to another embodiment, patients received 650 to 1,700 mg Rigosertib for three to six days every other week. According to yet another embodiment, patients were initially treated with 800 mg to 1,500 mg Rigosertib for two days every week for three weeks followed by one week without treatment. The treatment schedule in these studies was later changed to 1,800 mg Rigosertib per day for three days every other week.

[3] = system: immature bone marrow cells; assay: Higher risk MDS patients who previously failed Vidaza or Dacogen; assay type: in vivo; conditions: higher risk MDS patients after failure of azacitidine or decitabine
Text: In another embodiment, the efficacy of Rigosertib was shown in higher risk MDS patients who had previously failed treatment with Vidaza (azacitidine) or Dacogen (decitabine). […] These patients experienced at least a 50 percent decrease or stabilization in the number of immature bone marrow cells, and their median survival was about 36 weeks.

[4] = Phase II, Part 2 study of shorter spacing between two oral doses with azacitidine, urinary adverse events; assay type: in vivo, patients; conditions: doses administered about 8 hours apart
Protocol: This study was conducted in patients with high risk MDS. RAEB-t (Refractory Anemia with Excess Blasts in Transformation)/non-proliferative AML were eligible but patients with CMML (Chronic Myelomonocytic Leukemia) were excluded.
The Phase II, Part 2 component of the study consisted of 2 cohorts of up to 40 evaluable patients randomized 1:1 into 2 cohorts of up to 20 patients each to receive 1120 mg of rigosertib over 24 hours: either 560 mg in the morning before breakfast in the fasting state and 560 mg in the afternoon, or 840 mg in the morning before breakfast in the fasting state and 280 mg in the afternoon. The afternoon dose in both cohorts must be administered at 3 PM (±1 hr) at least 2 hours after lunch. Each cohort will be stratified among HMA (hypomethylating agents) naïve and HMA refractory patients.
Each patient was required to complete a diary indicating the day and time of drug intake and record daily urinary dipstick pH and microscopic hematuria test. Rigosertib was supplied as 280 mg and 70 mg (in the event that different doses are needed) capsules by Onconova. […]
Safety assessment: medical history, physical examination, vital signs (blood pressure, temperature, respiration rate, and pulse), weight, standard 12-lead ECG, laboratory evaluations, and toxicity and AE assessments were monitored throughout the study. […]

[5] = Phase 2 study in lower risk transfusion-dependent MDS patients, continuous vs intermittent oral administration, urinary adverse events; assay type: in vivo
Protocol: Soft gelatin capsule of Rigosertib was tested in this phase 2 study in LR (Lower Risk intermediate-1 or low risk per IPSS classification) transfusion-dependent MDS patients. The capsules (560 mg) were administered twice a day, under fasting conditions, approximately 12 hours apart. The total dose of drug was 1120 mg per day. Various treatment regimens were tested: • Continuous administration, i.e 4 out of 4 weeks. 9 patients were treated. • Intermittent administration; i.e 2 weeks on and one week off. 35 patients were treated. Safety assessment: medical history, physical examination, vital signs (blood pressure, temperature, respiration rate, and pulse), weight, standard 12-lead ECG, laboratory evaluations, and toxicity and AE assessments were monitored throughout the study. Urinary Adverse Events are pollakiuria, micturition urgency, urinary tract pain, hematuria and dysuria.

[6] = 560 mg bid q12 hrs, intermittent 2 weeks on/1 week off, n = 35

## COc1cc(OC)c(/C=C/S(=O)(=O)Cc2ccc(OC)c(NCC(=O)O)c2)c(OC)c1 [Rigosertib, (E)-2,4,6-trimethoxystyryl-3-[(carboxymethyl)amino]-4-methoxybenzylsulphone sodium salt]
[1]
  Common adverse event: urothelial toxicity
[2]
  Decrease or stabilization in the number of immature bone marrow cells (blasts): ≥ 50%
[3]
  Decrease or stabilization in the number of immature bone marrow cells: ≥ 50%
  Median survival: about 36 weeks
[4]
  Incidence of urinary adverse events (in words): dramatic reduction
[5]; [6]
  Incidence of Urinary AEs, Grade 1/2 (% of Patients): 71%
  Incidence of Urinary AEs, Grade 1/2, number of patients: 25
  Incidence of Urinary AEs, Grade 3 (% of Patients): 23%
  Incidence of Urinary AEs, Grade 3, number of patients: 8
[5]; continuous administration 4 out of 4 weeks, 560 mg twice a day
  Urinary adverse events (in words): high urinary adverse events
[5]; intermittent administration 2 weeks on and one week off, 560 mg twice a day
  Tolerability compared to continuous administration: better tolerated
